ChEMBL document CHEMBL1201862, “PubChem BioAssay data set” (2004)
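Assay format: 96-well plates, 48-hour exposure. GI50 = concentration required for 50% inhibition of growth.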 The source made the active and inactive calls. Cut-off read from the data, not from the text of the source: active = GI50 up to about 1.1 µM and inactive = higher.

What was measured:
Test in all cases: inhibition of tumour cell growth, NCI panel, 48 h
SK-MEL-5 = system: SK-MEL-5
M19-MEL = system: M19-MEL
SF-268 = system: SF-268
KM12 = system: KM12
OVCAR-4 = system: OVCAR-4
SW-620 = system: SW-620
ACHN = system: ACHN
A549 = system: A549
TK-10 = system: TK-10
HT-29 = system: HT-29
786-0 = system: 786-0
MDA-MB-231 = system: MDA-MB-231
HOP-62 = system: HOP-62
Hs-578T = system: Hs-578T
PC-3 = system: PC-3
HOP-92 = system: HOP-92
MDA-N = system: MDA-N
COLO 205 = system: COLO 205
MDA-MB-435 = system: MDA-MB-435
T47D = system: T47D

## C=CC[P@]1(=O)O[C@H](c2ccccc2)[C@H](C)N1C
SK-MEL-5
  GI50: > 100 µM (inactive)
M19-MEL
  GI50: > 100 µM (inactive)
SF-268
  GI50: > 100 µM (inactive)
KM12
  GI50: > 100 µM (inactive)
OVCAR-4
  GI50: > 100 µM (inactive)
SW-620
  GI50: > 100 µM (inactive)
ACHN
  GI50: > 100 µM (inactive)
A549
  GI50: > 100 µM (inactive)
TK-10
  GI50: > 100 µM (inactive)
HT-29
  GI50: > 100 µM (inactive)
786-0
  GI50: > 100 µM (inactive)

## COc1ccc(C(=O)/C=C/c2cc(O)c(O)c(F)c2F)c(OC)c1
SK-MEL-5
  GI50: 11.5 µM (inactive)
SF-268
  GI50: 18.6 µM (inactive)
KM12
  GI50: 11.4 µM (inactive)
MDA-MB-231
  GI50: 18.8 µM (inactive)
OVCAR-4
  GI50: 19 µM (inactive)
SW-620
  GI50: 15.4 µM (inactive)
ACHN
  GI50: 20.8 µM (inactive)
HOP-62
  GI50: 26.5 µM (inactive)
A549
  GI50: 16.1 µM (inactive)
Hs-578T
  GI50: 61.4 µM (inactive)
TK-10
  GI50: 22.5 µM (inactive)
PC-3
  GI50: 12.3 µM (inactive)
HOP-92
  GI50: 46.7 µM (inactive)
MDA-N
  GI50: 12.7 µM (inactive)
COLO 205
  GI50: 15.6 µM (inactive)
HT-29
  GI50: 4.67 µM (inactive)
MDA-MB-435
  GI50: 17.9 µM (inactive)
T47D
  GI50: 15.2 µM (inactive)
786-0
  GI50: 8 µM (inactive)

## COc1cc(C2S/C(=C/c3ccccc3)C(=O)N2c2ccc(Cl)c(Cl)c2)cc(OC)c1OC (configuration not stated)
SK-MEL-5
  GI50: 30.1 µM (inactive)
SF-268
  GI50: 11.7 µM (inactive)
KM12
  GI50: 18.1 µM (inactive)
MDA-MB-231
  GI50: > 50.8 µM (inactive)
OVCAR-4
  GI50: 60.8 µM (inactive)
SW-620
  GI50: 31 µM (inactive)
ACHN
  GI50: 18.7 µM (inactive)
HOP-62
  GI50: 47.3 µM (inactive)
A549
  GI50: 53.8 µM (inactive)
Hs-578T
  GI50: 15 µM (inactive)
TK-10
  GI50: > 100 µM (inactive)
PC-3
  GI50: 20.5 µM (inactive)
HOP-92
  GI50: 32.9 µM (inactive)
MDA-N
  GI50: 19.8 µM (inactive)
COLO 205
  GI50: 46.6 µM (inactive)
HT-29
  GI50: 55.5 µM (inactive)
MDA-MB-435
  GI50: 7.29 µM (inactive)
T47D
  GI50: > 100 µM (inactive)
786-0
  GI50: 70.6 µM (inactive)

## CC(C)=CCC/C(C)=C/CC/C(C)=C/CC/C(C)=C/C=C/C=C(\C)CC/C=C(\C)CC/C=C(\C)CCC=C(C)C
SK-MEL-5
  GI50: 44.1 µM (inactive)
SF-268
  GI50: > 58.7 µM (inactive)
KM12
  GI50: 31.8 µM (inactive)
MDA-MB-231
  GI50: > 70.5 µM (inactive)
OVCAR-4
  GI50: > 57.4 µM (inactive)
SW-620
  GI50: > 100 µM (inactive)
ACHN
  GI50: 31.5 µM (inactive)
HOP-62
  GI50: 72.6 µM (inactive)
A549
  GI50: 60 µM (inactive)
Hs-578T
  GI50: > 82.6 µM (inactive)
TK-10
  GI50: > 58.7 µM (inactive)
PC-3
  GI50: > 81.5 µM (inactive)
HOP-92
  GI50: 45.5 µM (inactive)
MDA-N
  GI50: > 68.5 µM (inactive)
COLO 205
  GI50: > 100 µM (inactive)
HT-29
  GI50: > 100 µM (inactive)
MDA-MB-435
  GI50: > 76.6 µM (inactive)
T47D
  GI50: 72.1 µM (inactive)
786-0
  GI50: 22.2 µM (inactive)

## O=C(c1c(F)c(F)c(F)c(F)c1F)N1CCN(C(=O)c2c(F)c(F)c(F)c(F)c2F)C1=S
SK-MEL-5
  GI50: 6.9 µM (inactive)
SF-268
  GI50: 11.3 µM (inactive)
KM12
  GI50: 6 µM (inactive)
MDA-MB-231
  GI50: 6.75 µM (inactive)
OVCAR-4
  GI50: 5.22 µM (inactive)
SW-620
  GI50: 1.84 µM (inactive)
ACHN
  GI50: 7.69 µM (inactive)
HOP-62
  GI50: 15.2 µM (inactive)
A549
  GI50: 14.4 µM (inactive)
Hs-578T
  GI50: 4.66 µM (inactive)
TK-10
  GI50: 13.9 µM (inactive)
PC-3
  GI50: 7.67 µM (inactive)
HOP-92
  GI50: 3.89 µM (inactive)
MDA-N
  GI50: 2.48 µM (inactive)
COLO 205
  GI50: 7.01 µM (inactive)
HT-29
  GI50: 5.48 µM (inactive)
MDA-MB-435
  GI50: 3.3 µM (inactive)
T47D
  GI50: 6.46 µM (inactive)
786-0
  GI50: 13.2 µM (inactive)

## CC(C)(C)NNC(=O)CCn1[nH]c(=O)c(Cl)c(Cl)c1=O
M19-MEL
  GI50: > 100 µM (inactive)
SF-268
  GI50: > 100 µM (inactive)
KM12
  GI50: > 100 µM (inactive)
OVCAR-4
  GI50: > 100 µM (inactive)
SW-620
  GI50: > 100 µM (inactive)
ACHN
  GI50: > 100 µM (inactive)
HOP-62
  GI50: > 100 µM (inactive)
A549
  GI50: > 100 µM (inactive)
TK-10
  GI50: > 100 µM (inactive)
COLO 205
  GI50: > 100 µM (inactive)
HT-29
  GI50: > 100 µM (inactive)
786-0
  GI50: > 100 µM (inactive)

## CCC1(CC)N=C(C(F)(F)F)c2cc(C(=O)C(F)(F)F)c3ccccc3c2N1
SK-MEL-5
  GI50: 1.77 µM (inactive)
SF-268
  GI50: 8.43 µM (inactive)
KM12
  GI50: 3.99 µM (inactive)
MDA-MB-231
  GI50: 3.44 µM (inactive)
OVCAR-4
  GI50: 4.57 µM (inactive)
SW-620
  GI50: 4.78 µM (inactive)
ACHN
  GI50: 4.3 µM (inactive)
HOP-62
  GI50: 5.19 µM (inactive)
A549
  GI50: 9.71 µM (inactive)
Hs-578T
  GI50: 5.83 µM (inactive)
TK-10
  GI50: 8.63 µM (inactive)
PC-3
  GI50: 3.3 µM (inactive)
HOP-92
  GI50: 2.67 µM (inactive)
MDA-N
  GI50: 3.15 µM (inactive)
COLO 205
  GI50: 14 µM (inactive)
HT-29
  GI50: 3.7 µM (inactive)
MDA-MB-435
  GI50: 3.58 µM (inactive)
T47D
  GI50: 3.75 µM (inactive)
786-0
  GI50: 3.87 µM (inactive)

## Cc1ccc([N+](=O)[O-])cc1S(=O)(=O)Nc1ccc(C2=NN(S(=O)(=O)c3cc([N+](=O)[O-])ccc3C)C(c3ccccc3)C2)cc1 (configuration not stated)
SK-MEL-5
  GI50: 26.3 µM (inactive)
SF-268
  GI50: 17.6 µM (inactive)
KM12
  GI50: 34.9 µM (inactive)
MDA-MB-231
  GI50: 26.1 µM (inactive)
OVCAR-4
  GI50: 33.9 µM (inactive)
SW-620
  GI50: 50.5 µM (inactive)
ACHN
  GI50: 31.8 µM (inactive)
HOP-62
  GI50: 35.1 µM (inactive)
A549
  GI50: 29.4 µM (inactive)
Hs-578T
  GI50: < 0.01 µM (active)
TK-10
  GI50: 30.9 µM (inactive)
PC-3
  GI50: 26.9 µM (inactive)
HOP-92
  GI50: 35.8 µM (inactive)
MDA-N
  GI50: 30.1 µM (inactive)
COLO 205
  GI50: 27 µM (inactive)
HT-29
  GI50: 33.5 µM (inactive)
MDA-MB-435
  GI50: 36.8 µM (inactive)
T47D
  GI50: 41.4 µM (inactive)
786-0
  GI50: 39.5 µM (inactive)
